pIC50: −log10 of the molar value.
Key:
Assay type in all cases: cell-based
[1] = test system: AKT; experiment: AKT ubiquitination assay (TUBE pulldown, western blot); settings: KU-19-19 cells, 3 uM of compound, 6 hrs
Description: For each assay condition. 5.0×10^6 KU-19-19 cells were seeded in 10 cm dish grown in RPMI (Invitrogen. Carlsbad. CA. USA) supplemented with 10% fetal bovine serum. Cells were incubated overnight at 37° C. in a humidified atmosphere containing 5% CO2. […]. Next day, media was removed and cells were rinsed with 0.1% FBS cell culture media. Then 10 mL of 0.1% FBS+RPMI containing 3 uM of compound was added to each plate and treated with compound for 6 hrs. Cells were washed 3× with PBS and placed on ice. 900 μL of lysis buffer (50 mM Tris-HCl pH 7.4, 150 mM NaCl. 1% NP-40, 1% Sodium deoxycholate. 2 mM EDTA, 10% Glycerol, 5 mM Iodoacetamide (dissolved in ddH2O, MCE, Cat #HY-34477), 1×HALT protease\phosphatase inhibitor (Pierce. Cat #78440), 1×PMSF (Sigma. Cat #93482-50ML-F), 5 mM 1.10 Phenanthroline (in DMSO, MCE, Cat #HY—W004544), 25 uM MG-132 (in DMSO) (MCE. Cat #HY-13259), 50 μM PR-619 (make it in DMSO) (MCE. Cat #HY-13814) and 1× Benzonase (Sigma. Cat #E8263) was added and incubated on ice for 3-5 min and then scraped and collected. Lysates were incubated on ice for 1 hr and vortexed every 15 minutes before spinning down at 14 000 g for 10 minutes. Supernatants were collected and flash frozen in Liquid nitrogen for 10 minutes and stored at −80 C until further used. Adjust volume of samples with lysis buffer to obtain 1 mg in total volume of 1 mL. Perform TUBES pulldown following manufacturer's procedure using TUBE1 (high capacity magnetic beads) (Cat #UM-0501M-1000. LifeSensors). Briefly, wash 150 μl beads per sample with 12× beads volume of PBST (0.1% Tweed-20) three times. Add 1 mL of protein lysate to beads and incubate for 4 hours rotating at 4 C. Wash 4× with 10× beads volume of lysis buffer and rotate for 3 minutes, then collect beads with magnet for 3 minutes before collecting buffer. Wash 1× with 5× beads volumes of PBS-T. Wash TUBEs with 100 μl wash buffer for 5 minutes on thermomixer set at 1400 rpm and 25 C. TUBE washing buffer/TUBE Elution buffer/TUBE Neutralization buffer (Cat #UM411. LifeSensors) Elute with 18 μl of TUBE elution buffer for 15 minutes on thermomixer set at 1400 rpm at 25 C, and then collect eluate and add 2 μl of neutralization buffer. Load 18 μl of pulldown sample and 10 μg of input samples onto gel for western blot using standard methods with following antibodies: AKT (pan) (C67E7) (CST. Cat #4691S). β-Actin antibody (Cat #A1978, sigma) (Dilution. 1:2000) Anti-rabbit IgG. HRP-linked Antibody (CST. Cat #7074S) (Dilution, 1:2000)

[2] = molecular target: T1, AKT1 E17 (Homo sapiens, UniProt P31749, E17K); experiment: AKT plasma membrane translocation assay (AKT1 E17K-SmBiT / LCK1-LgBiT luminescence); settings: KU-19-19 cells transfected with AKT1E17K-SmBIT and LCK1-LgBiT, read up to 1 hr
T1 construct: expressed in transfected cells; host or cells: KU-19-19
Description: AKT plasma membrane translocation assay
Seed 1.5×10^6 KU-19-19 cells in 10 cm dish. Transfect cells at 70% cell confluency with 5 ug AKTIE17K-SmBIT and 0.5 ug LCK1-LgBiT with Jet-Optimus transfection reagent. Incubate for 4-5 hours at 37c 5% CO2 TC incubator. Split and seed 10K cells in 40 ul media per well in 384 well plate and incubate over night at 37° C. CO2 free TC incubator. Add 10 ul of 5× Vivazine substrate (prepared in CO2 independent medium) to cells and shake palte to mix for 30 seconds. Read Luminescence for 100 minutes until signal is stable (1 read per minute). Add 50 nl/well of 3 uM compound stock to cells.

[3] = test system: MDAMB468.1; experiment: Cell Titer Glo (CTG) proliferation assay, MDA-MB-468; settings: Homo sapiens, MDA-MB-468; MDAMB468.1 cells, 72.0 hrs.; read-out: AVE CTG Proliferation MDAMB468.1 72.0 hrs.
Outline: (§1)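 After overnight seeding at 37 °C, 5% CO2, cells were exposed to compound for 3 days. Viability read by CellTiter-Glo luminescence after 30 min at room temperature.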

[4] = test system: KU1919.1; experiment: Cell Titer Glo (CTG) proliferation assay, KU1919; settings: Homo sapiens, KU-19-19; KU1919.1 cells, 72.0 hrs.; read-out: AVE CTG Proliferation KU1919.1 72.0 hrs.
Outline: as §1

[5] = test system: MDAMB231.1; experiment: Cell Titer Glo (CTG) proliferation assay, MDA-MB-231; settings: Homo sapiens, MDA-MB-231; MDAMB231.1 cells, 72 hrs.; read-out: AVE CTG Proliferation MDAMB231.1 72 hrs.
Description: Seed cells in 40 μL of cell culture media into each well of 384-well cell culture plate, spin them at room temperature at 1,000 RPM for 1 minute and then transfer the plates into 37° C. 5% CO2 incubator overnight. Next day, treat cells with 40 nL of diluted compound and return to incubator. After compound treatment for 3 days, Add 30 μL of CellTiter-Glo reagent (Promega) into each well to be detected. Then place the plates at room temperature for 30 min followed by reading on EnVision. Inhibition activity calculated as % DMSO=100×(LumSample-Lum low control)/(Lum high control-Lum low control) where high control is from cells treated with 0.1% DMSO and Low control obtained from PBS only. Use XLFit (equation 201) to calculate IC50 (A+ ((B−A)/(1[…]((x/C)^D)))) where A: Bottom, B: Top, C: IC50, D: Slope.

T1 sequence (P31749 whole entry E17K): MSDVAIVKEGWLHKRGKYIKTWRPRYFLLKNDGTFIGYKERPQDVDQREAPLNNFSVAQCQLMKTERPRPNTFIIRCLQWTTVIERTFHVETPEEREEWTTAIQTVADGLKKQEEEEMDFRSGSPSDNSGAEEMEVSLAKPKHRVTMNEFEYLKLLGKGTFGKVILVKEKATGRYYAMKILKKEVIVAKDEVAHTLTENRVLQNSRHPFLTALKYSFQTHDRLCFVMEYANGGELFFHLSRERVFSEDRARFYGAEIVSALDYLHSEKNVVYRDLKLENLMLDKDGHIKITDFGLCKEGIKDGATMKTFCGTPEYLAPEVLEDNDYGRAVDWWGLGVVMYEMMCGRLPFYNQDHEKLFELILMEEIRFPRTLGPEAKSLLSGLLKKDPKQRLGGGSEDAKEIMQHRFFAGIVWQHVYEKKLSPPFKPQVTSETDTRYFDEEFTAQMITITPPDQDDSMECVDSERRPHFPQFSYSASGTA

Reduced AKT1 E17 plasma membrane translocation relative to PBM [2]	pIC50 [3]	pIC50 [5]	SMILES	Reduced AKT ubiquitination relative to PBM [1]	pIC50 [4]
Yes	–	–	CCOc1cc(OC)ccc1CNCC(=O)N1CCCC(c2cccc(C(=O)N[C@@H](C(=O)N3CCN(CC4CCN(CC(=O)N5CCN(CC[C@H](NC(=O)C6(N)CCN(c7ncnc8[nH]ccc78)CC6)c6ccc(Cl)cc6)CC5)CC4)CC3)C3CCCCC3)c2)C1 (some centres unmarked) [Compound I-46]	Yes	–
Yes	5.30 to 6.00	5.30 to 6.00	NC1(C(=O)N[C@@H](CCN2CCN(C(=O)CN3CCC(OC4CCN(C(=O)[C@H](NC(=O)c5cccc(C6CN(C(=O)CNCc7ccc(F)cc7F)C6)c5)C5CCCCC5)CC4)CC3)CC2)c2ccc(Cl)cc2)CCN(c2ncnc3[nH]ccc23)CC1 [Compound I-242]	Yes	6.00 to 6.30
–	5.30 to 6.00	5.30 to 6.00	CCc1cccc(-c2cnc(C(=O)N3CCN(CC45CCC(NCC(=O)NCCNC[C@@H](C(=O)N6CCN(c7cccc8c7[C@H](C)C[C@H]8O)CC6)c6ccc(Cl)cc6)(CC4)CO5)CC3)c(NC(=O)OC(C)(C)C)c2)c1 [Compound I-305]	–	5.30 to 6.00
–	5.30 to 6.00	5.30 to 6.00	CCc1cccc(-c2cnc(C(=O)N3CCN(CC4CCN(CC(=O)NCCNC[C@@H](C(=O)N5CCN(c6ncnc7c6[C@H](C)C[C@H]7O)CC5)c5ccc(Cl)cc5)CC4)CC3)c(NC(=O)OC(C)(C)C)c2)c1 [Compound I-306]	–	5.30 to 6.00
–	5.30 to 6.00	5.00 to 5.30	CC(C)(C)OC(=O)N[C@@H](C(=O)N1CCN(CC2CCN(CC(=O)N3CCN(CC[C@H](NC(=O)C4(N)CCN(c5ncnc6[nH]ccc56)CC4)c4ccc(Cl)cc4)CC3)CC2)CC1)C1CCCCC1 [Compound I-310]	–	5.30 to 6.00

More lines, now with the values behind:

SMILES	Reduced AKT1 E17 plasma membrane translocation relative to PBM [2]	pIC50 [3]	pIC50 [5]	Reduced AKT ubiquitination relative to PBM [1]	pIC50 [4]
NC1(C(=O)N[C@@H](CCN2CCN(C(=O)CN3CCC(OC4CCN(C(=O)[C@H](NC(=O)c5cccc(C6CCCN(C(=O)C7CC7)C6)c5)C5CCCCC5)CC4)CC3)CC2)c2ccc(Cl)cc2)CCN(c2ncnc3[nH]ccc23)CC1 (some centres unmarked) [Compound I-254]	Yes	5.30 to 6.00	5.30 to 6.00	Yes	5.30 to 6.00
CC(C)(C)OC(=O)N[C@@H](C(=O)N1CCC(OC2CCN(CC(=O)N3CCN(CC[C@H](NC(=O)C4(N)CCN(c5ncnc6[nH]ccc56)CC4)c4ccc(Cl)cc4)CC3)CC2)CC1)C1CCCCC1 [Compound I-312]	Yes	5.30 to 6.00	5.30 to 6.00	Yes	5.30 to 6.00
CC(C)(C)OC(=O)N1CCC(OC2CCN(CC(=O)N3CCN(CC[C@H](NC(=O)C4(N)CCN(c5ncnc6[nH]ccc56)CC4)c4ccc(Cl)cc4)CC3)CC2)CC1 [Compound I-315]	–	5.30 to 6.00	< 5.00	–	5.30 to 6.00
CC(C)NC[C@@H](C(=O)N1CCN(c2ncnc3c2[C@H](C)C[C@H]3O)CC1)c1ccc(Cl)cc1 [GDC-0068, Ipatasertib, reference compound]	–	< 5.00	< 5.00	–	< 5.00
